# Data reported in PubChem BioAssay (NCI).
#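 Assay format: 96-well plates, 48-hour exposure. TGI marks complete inhibition of growth.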
# Assays:
# Test in all cases: NCI-60 cell line screen, 48 h
# MCF7 breast = system: MCF7 breast
# OVCAR-5 ovarian = system: OVCAR-5 ovarian
# DU-145 prostate = system: DU-145 prostate
# NCI-H226 lung = system: NCI-H226 lung
# NCI-H522 lung = system: NCI-H522 lung
# HOP-92 NSCLC = system: HOP-92 NSCLC
# OVCAR-3 ovarian = system: OVCAR-3 ovarian
# HCT-116 colon = system: HCT-116 colon
# HCT-15 colon = system: HCT-15 colon
# SF-295 CNS = system: SF-295 CNS
# BT-549 breast = system: BT-549 breast
# NCI-H460 lung = system: NCI-H460 lung
# SK-OV-3 ovarian = system: SK-OV-3 ovarian
# SNB-75 CNS = system: SNB-75 CNS
# A549 NSCLC = system: A549 NSCLC
# MDA-N = system: MDA-N
# MALME-3M melanoma = system: MALME-3M melanoma
# SN12C renal = system: SN12C renal
# HS 578T breast = system: HS 578T breast
# KM12 colon = system: KM12 colon
# IGROV1 ovarian = system: IGROV1 ovarian
# OVCAR-4 ovarian = system: OVCAR-4 ovarian
# NCI-H23 lung = system: NCI-H23 lung
# SK-MEL-28 melanoma = system: SK-MEL-28 melanoma
# M14 melanoma = system: M14 melanoma
# SNB-19 CNS = system: SNB-19 CNS
# LOX IMVI melanoma = system: LOX IMVI melanoma
# CAKI-1 renal = system: CAKI-1 renal
# RPMI-8226 leukemia = system: RPMI-8226 leukemia
# RXF 393 renal = system: RXF 393 renal
# 786-0 renal = system: 786-0 renal
# MOLT-4 leukemia = system: MOLT-4 leukemia
# SK-MEL-5 melanoma = system: SK-MEL-5 melanoma
# T-47D breast = system: T-47D breast
# SK-MEL-2 melanoma = system: SK-MEL-2 melanoma
# PC-3 prostate = system: PC-3 prostate
# A498 renal = system: A498 renal
# SF-539 CNS = system: SF-539 CNS
# UACC-257 melanoma = system: UACC-257 melanoma
# SR leukemia = system: SR leukemia
# COLO 205 colon = system: COLO 205 colon
# SW-620 colon = system: SW-620 colon
# MDA-MB-231 breast = system: MDA-MB-231 breast
# HT29 colon = system: HT29 colon
# ACHN renal = system: ACHN renal
# U251 CNS = system: U251 CNS
# MDA-MB-435 = system: MDA-MB-435
# SF-268 CNS = system: SF-268 CNS
# HOP-62 NSCLC = system: HOP-62 NSCLC
# EKVX NSCLC = system: EKVX NSCLC
# TK-10 renal = system: TK-10 renal
# OVCAR-8 ovarian = system: OVCAR-8 ovarian
# UO-31 renal = system: UO-31 renal
# K-562 leukemia = system: K-562 leukemia
# HCC-2998 colon = system: HCC-2998 colon
# NCI/ADR-RES ovarian = system: NCI/ADR-RES ovarian
# CCRF-CEM leukemia = system: CCRF-CEM leukemia
# UACC-62 melanoma = system: UACC-62 melanoma
# HL-60(TB) leukemia = system: HL-60(TB) leukemia
structure (smiles),measurement,setting,value
CCOC(=O)NN(C(=O)OCC)C(C(=O)C1=CCCCC1)N(NC(=O)OCC)C(=O)OCC,TGI,MCF7 breast,> 100 µM
same,TGI,OVCAR-5 ovarian,> 100 µM
same,TGI,DU-145 prostate,> 100 µM
same,TGI,NCI-H226 lung,> 100 µM
same,TGI,NCI-H522 lung,> 100 µM
same,TGI,HOP-92 NSCLC,> 100 µM
same,TGI,OVCAR-3 ovarian,> 100 µM
same,TGI,HCT-116 colon,> 100 µM
same,TGI,HCT-15 colon,> 100 µM
same,TGI,SF-295 CNS,> 100 µM
same,TGI,BT-549 breast,> 100 µM
same,TGI,NCI-H460 lung,> 100 µM
same,TGI,SK-OV-3 ovarian,> 100 µM
same,TGI,SNB-75 CNS,> 100 µM
same,TGI,A549 NSCLC,> 100 µM
same,TGI,MDA-N,> 100 µM
same,TGI,MALME-3M melanoma,> 100 µM
same,TGI,SN12C renal,> 100 µM
same,TGI,HS 578T breast,> 100 µM
same,TGI,KM12 colon,> 100 µM
same,TGI,IGROV1 ovarian,> 100 µM
same,TGI,OVCAR-4 ovarian,> 100 µM
same,TGI,NCI-H23 lung,> 100 µM
same,TGI,SK-MEL-28 melanoma,> 100 µM
same,TGI,M14 melanoma,> 100 µM
same,TGI,SNB-19 CNS,> 100 µM
same,TGI,LOX IMVI melanoma,> 100 µM
same,TGI,CAKI-1 renal,> 100 µM
same,TGI,RPMI-8226 leukemia,> 100 µM
same,TGI,RXF 393 renal,> 100 µM
same,TGI,786-0 renal,> 100 µM
same,TGI,MOLT-4 leukemia,> 100 µM
same,TGI,SK-MEL-5 melanoma,> 100 µM
same,TGI,T-47D breast,> 100 µM
same,TGI,SK-MEL-2 melanoma,> 100 µM
same,TGI,PC-3 prostate,> 100 µM
same,TGI,A498 renal,> 100 µM
same,TGI,SF-539 CNS,> 100 µM
same,TGI,UACC-257 melanoma,> 100 µM
same,TGI,SR leukemia,> 100 µM
same,TGI,COLO 205 colon,> 100 µM
same,TGI,SW-620 colon,> 100 µM
same,TGI,MDA-MB-231 breast,> 100 µM
same,TGI,HT29 colon,> 100 µM
same,TGI,ACHN renal,> 100 µM
same,TGI,U251 CNS,> 100 µM
same,TGI,MDA-MB-435,> 100 µM
same,TGI,SF-268 CNS,> 100 µM
same,TGI,HOP-62 NSCLC,> 100 µM
same,TGI,EKVX NSCLC,> 100 µM
same,TGI,TK-10 renal,> 100 µM
same,TGI,OVCAR-8 ovarian,> 100 µM
same,TGI,UO-31 renal,> 100 µM
same,TGI,K-562 leukemia,> 100 µM
same,TGI,HCC-2998 colon,> 100 µM
same,TGI,NCI/ADR-RES ovarian,> 100 µM
COc1cc(-c2nc3ccc(N4CCN(C)CC4)cc3[nH]2)c(OC)c2[nH]c(COC(C)=O)nc12,TGI,MCF7 breast,> 100 µM
same,TGI,OVCAR-5 ovarian,> 100 µM
same,TGI,DU-145 prostate,95.5 µM
same,TGI,NCI-H226 lung,> 100 µM
same,TGI,NCI-H522 lung,> 100 µM
same,TGI,HOP-92 NSCLC,> 100 µM
same,TGI,OVCAR-3 ovarian,> 100 µM
same,TGI,CCRF-CEM leukemia,> 100 µM
same,TGI,HCT-116 colon,> 100 µM
same,TGI,HCT-15 colon,> 100 µM
same,TGI,SF-295 CNS,> 100 µM
same,TGI,BT-549 breast,> 100 µM
same,TGI,NCI-H460 lung,> 100 µM
same,TGI,SK-OV-3 ovarian,> 100 µM
same,TGI,SNB-75 CNS,82 µM
same,TGI,A549 NSCLC,> 100 µM
same,TGI,MDA-N,> 100 µM
same,TGI,MALME-3M melanoma,63.8 µM
same,TGI,SN12C renal,> 100 µM
same,TGI,HS 578T breast,> 100 µM
same,TGI,KM12 colon,> 100 µM
same,TGI,IGROV1 ovarian,> 100 µM
same,TGI,OVCAR-4 ovarian,> 100 µM
same,TGI,NCI-H23 lung,> 100 µM
same,TGI,SK-MEL-28 melanoma,> 100 µM
same,TGI,M14 melanoma,35 µM
same,TGI,SNB-19 CNS,> 100 µM
same,TGI,UACC-62 melanoma,> 100 µM
same,TGI,LOX IMVI melanoma,96.4 µM
same,TGI,CAKI-1 renal,> 100 µM
same,TGI,RPMI-8226 leukemia,> 100 µM
same,TGI,RXF 393 renal,59.4 µM
same,TGI,786-0 renal,> 100 µM
same,TGI,MOLT-4 leukemia,> 100 µM
same,TGI,SK-MEL-5 melanoma,> 100 µM
same,TGI,T-47D breast,> 100 µM
same,TGI,HL-60(TB) leukemia,> 100 µM
same,TGI,SK-MEL-2 melanoma,> 100 µM
same,TGI,PC-3 prostate,> 100 µM
same,TGI,A498 renal,> 100 µM
same,TGI,SF-539 CNS,> 100 µM
same,TGI,UACC-257 melanoma,> 100 µM
same,TGI,SR leukemia,73 µM
same,TGI,COLO 205 colon,> 100 µM
same,TGI,SW-620 colon,> 100 µM
same,TGI,MDA-MB-231 breast,> 100 µM
same,TGI,HT29 colon,> 100 µM
same,TGI,ACHN renal,> 100 µM
same,TGI,U251 CNS,> 100 µM
same,TGI,MDA-MB-435,> 100 µM
same,TGI,SF-268 CNS,> 100 µM
same,TGI,HOP-62 NSCLC,> 100 µM
same,TGI,EKVX NSCLC,> 100 µM
same,TGI,TK-10 renal,> 100 µM
same,TGI,OVCAR-8 ovarian,> 100 µM
same,TGI,UO-31 renal,> 100 µM
same,TGI,K-562 leukemia,> 100 µM
same,TGI,NCI/ADR-RES ovarian,> 100 µM
